Data published in publication PMC4102782, “Dual Aurora A and JAK2 kinase blockade effectively suppresses malignant transformation” (Oncotarget, 2014).

Tests used:
[1] = tested on: MDA-MB-468 cells; experiment: Anchorage-dependent proliferation, MTT assay, MDA-MB-468; format: cell-based; conditions: Homo sapiens, 48 h; for IC50: MDA-MB-468, MTT
Experimental: (§1) Cells were cultured in 96 well plates at a density of 2,000 cells/ well. The cells with siRNA transfection or with the inhibitor treatment were monitored for viability using MTT at indicated time points. At the given time points, MTT reagent was added to the media and allowed to incubate for 3 h at 37° C in a humidified incubator at 5% CO2. The medium was then removed and MTT crystals were dissolved in DMSO (Sigma). Cell viability was quantified by reading the plates at an absorbance of 540 nm on a μQuant microplate reader using KC4 data analysis software (Bio-Tek Instruments). The 540 nm absorbance of vehicle-treated wells was used to define 100% proliferation. Each condition was performed in replicates of six wells.

[2] = tested on: MDA-MB-468 tumor xenografts; experiment: MDA-MB-468 tumor xenografts in nude mice; format: in vivo; conditions: 50 mpk i.p. daily for 14 days
Experimental: (§2) Female nude mice (Charles River Laboratories, Wilmington, MA) were maintained and treated in accordance with the Institutional Animal Care and Use Committee procedures and guidelines. Exponentially growing MDA-MB-468 cells were harvested via trypsinization, pelleted at 400 g for 5 min. Cell pellets were re-suspended in DPBS (Invitrogen) at 10 x10^6 cells per 200 μl, and injected into right flank of mice. The tumor xenografts were monitored with an electronic caliper measurements and tumor volume (V) was calculated using the formula V= (W × L^2)/2, where width is the largest diameter and length is the smallest diameter. When the tumors reached ~ 250 mm^3, the animals were randomized and treatment schedules were implemented. Treatments consisted of intraperitoneal (i.p.) injections of vehicle control (50% polyethylene glycol (PG) + 15% 2-hydroxypropyl-beta-cyclodextrin (HPCD) (n=5) or AJI-100 (n=6) at 50 mg/kg, everyday for 14 days.

[3] = target: T1, Aurora B (Homo sapiens, UniProt Q96GD4); experiment: HotSpot kinase assay (Reaction Biology), Aurora B; format: biochemical; conditions: in vitro, HotSpot method
T1 construct: purchased Reaction Biology Inc
T1 sequence (Q96GD4 whole entry): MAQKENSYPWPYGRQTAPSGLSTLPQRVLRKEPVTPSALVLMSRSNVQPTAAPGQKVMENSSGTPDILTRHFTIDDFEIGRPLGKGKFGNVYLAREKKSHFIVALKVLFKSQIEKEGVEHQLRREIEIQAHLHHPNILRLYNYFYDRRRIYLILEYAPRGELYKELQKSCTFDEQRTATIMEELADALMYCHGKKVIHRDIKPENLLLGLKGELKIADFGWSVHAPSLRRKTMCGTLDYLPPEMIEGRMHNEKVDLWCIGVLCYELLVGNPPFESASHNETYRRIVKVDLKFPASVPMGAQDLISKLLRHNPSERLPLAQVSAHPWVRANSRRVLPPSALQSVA

[4] = target: T2, JAK2 (Homo sapiens, UniProt O60674); experiment: HotSpot kinase assay (Reaction Biology), JAK2; format: biochemical; conditions: in vitro, HotSpot method
T2 construct: purchased Reaction Biology Inc
T2 sequence (O60674 whole entry): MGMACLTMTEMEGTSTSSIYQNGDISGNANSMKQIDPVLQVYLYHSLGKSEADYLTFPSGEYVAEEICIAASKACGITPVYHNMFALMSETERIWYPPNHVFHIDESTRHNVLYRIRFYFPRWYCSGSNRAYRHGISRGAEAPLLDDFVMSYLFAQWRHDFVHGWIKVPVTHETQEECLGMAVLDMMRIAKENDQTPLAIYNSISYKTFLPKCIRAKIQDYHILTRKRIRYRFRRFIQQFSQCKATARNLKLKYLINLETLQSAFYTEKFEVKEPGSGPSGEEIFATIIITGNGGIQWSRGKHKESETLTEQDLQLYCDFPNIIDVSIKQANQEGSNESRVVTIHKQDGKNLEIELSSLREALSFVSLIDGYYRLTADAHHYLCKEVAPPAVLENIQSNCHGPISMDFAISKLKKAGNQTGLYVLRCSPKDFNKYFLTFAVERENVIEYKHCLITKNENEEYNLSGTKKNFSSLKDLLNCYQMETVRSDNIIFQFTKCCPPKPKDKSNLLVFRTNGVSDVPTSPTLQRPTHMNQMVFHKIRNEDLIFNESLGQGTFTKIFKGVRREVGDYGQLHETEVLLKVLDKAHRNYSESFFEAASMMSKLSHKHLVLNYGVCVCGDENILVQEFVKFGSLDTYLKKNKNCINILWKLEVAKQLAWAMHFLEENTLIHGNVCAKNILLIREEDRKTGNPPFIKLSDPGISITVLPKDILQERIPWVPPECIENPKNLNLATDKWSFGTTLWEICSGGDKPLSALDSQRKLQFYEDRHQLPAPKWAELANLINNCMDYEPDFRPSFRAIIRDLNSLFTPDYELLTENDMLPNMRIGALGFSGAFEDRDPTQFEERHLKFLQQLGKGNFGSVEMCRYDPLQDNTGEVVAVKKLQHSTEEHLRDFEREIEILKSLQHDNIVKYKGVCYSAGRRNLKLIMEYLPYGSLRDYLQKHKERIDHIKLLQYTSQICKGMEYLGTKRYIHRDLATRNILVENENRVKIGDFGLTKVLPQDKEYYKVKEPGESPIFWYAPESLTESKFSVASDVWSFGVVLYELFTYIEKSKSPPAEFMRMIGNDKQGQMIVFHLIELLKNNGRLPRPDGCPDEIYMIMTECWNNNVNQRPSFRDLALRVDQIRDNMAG

[5] = tested on: MDA-MB-468 cells; experiment: Matrigel Transwell invasion, MDA-MB-468; format: cell-based, human
Experimental: Cells were transfected with Aurora A and JAK2 for 48 h or with siRNA for 72 h or treated with the compounds for 24 h and then were trypsinized and resuspended in serum-free medium and placed in the upper chamber of the Matrigel-coated (0.8 μg/μL, BD Biosciences, San Diego, CA) Transwell insert (from 2 to 5 × 10^4 cells/well) and with 0.5% DMSO or the compounds at the indicated dose. Medium containing 10%FBS was placed in the lower chamber. […] Invading cells in the membrane were fixed with 100% methanol and stained with fresh prepared 0.2% crystal violet. Noninvasive cells in the upper chamber were removed by wiping the upper side of the membrane with a cotton swab, and cells located on the underside of the filter were observed and photographed under Olympus stereo microscope. The number of invading cells was counted using Image-Pro analysis software.

[6] = target: T3, Aurora A (Homo sapiens, UniProt O14965); experiment: HotSpot kinase assay (Reaction Biology), Aurora A; format: biochemical; conditions: in vitro, HotSpot method
T3 construct: purchased Reaction Biology Inc
T3 sequence (O14965 1-403): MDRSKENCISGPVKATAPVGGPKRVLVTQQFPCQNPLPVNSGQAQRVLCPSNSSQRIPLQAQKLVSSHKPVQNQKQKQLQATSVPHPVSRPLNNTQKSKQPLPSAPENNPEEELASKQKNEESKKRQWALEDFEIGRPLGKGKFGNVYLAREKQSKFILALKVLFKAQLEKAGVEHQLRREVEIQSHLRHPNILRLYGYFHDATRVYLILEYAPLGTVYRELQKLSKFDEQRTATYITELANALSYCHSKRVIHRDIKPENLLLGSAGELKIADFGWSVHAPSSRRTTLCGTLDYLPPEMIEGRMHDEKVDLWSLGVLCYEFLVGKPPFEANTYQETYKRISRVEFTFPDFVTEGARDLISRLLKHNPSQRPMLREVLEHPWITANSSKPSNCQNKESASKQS

[7] = Mouse weights during xenograft study; format: in vivo, nude mice; conditions: 50 mpk i.p. daily, over the 14-day treatment period; vehicle 3.33 %
Experimental: as §2

[8] = tested on: P-Histone H3 (Ser-10), Aurora B substrate; experiment: Western blot, phosphorylation of Histone H3 in MDA-MB-468 cells; format: cell-based, human; conditions: for effect on phosphorylation of Histone H3 (Ser-10): MDA-MB-468, increasing concentrations, 2 h
Experimental: (§3) Cells were plated in 6 cm dishes at a density of 2 × 10^5 cells/dish. Aurora A activity was determined by measuring autophosphorylation of Aurora A on Thr288 in cells that were synchronized by treatment with nocodazole (100 ng/mL) for 20 h prior to the treatment with Aurora inhibitors, whereas Aurora B activity was determined by measuring phosphorylation of histone H3 on Ser-10 (p-HH3). […] Cells were harvested after 2 h of treatment and processed for SDS−PAGE and Western blotting.
(§4) Cells were harvested from experiments of ectopic expression or knockdown using siRNA or the treatment with the inhibitors, washed, and then lysed using lysis buffer as previously described. The protein concentration of the lysate was measured, and the lysate was mixed with gel electrophoresis loading buffer, boiled for 5 minutes, separated by SDS-PAGE, and transferred to nitrocellulose membranes.

[9] = tested on: P-STAT3 (Y705), JAK2 substrate; experiment: Western blot, phosphorylation of STAT3 in MDA-MB-468 cells; format: cell-based, human
Experimental: as §3, §4

[10] = tested on: MDA-MB-468 cells; experiment: Soft agar anchorage-independent growth, MDA-MB-468; format: cell-based, human
Experimental: For analysis of anchorage-independent growth, log-phase growing cells were trypsinized, and triplicates of 1.5 × 10^3 cells per well were seeded in regular growth medium containing 0.3% agar (Sigma) and drug added at the indicated concentrations, as previously described. The cells were allowed to incubate at 37° C for 3 weeks and fed once per week with the inhibitor before 1 mg/ml MTT (Sigma) solution was added overnight to facilitate colony counting. Colonies were scored and counted according to size, as previously described.

[11] = tested on: P-STAT3; experiment: Western blot, phosphorylation of STAT3 in HT-29 cells; format: cell-based, human; conditions: HT-29, Alisertib 2 μM
Experimental: as §3, §4

[12] = tested on: HT-29 cells; experiment: Matrigel Transwell invasion, HT-29; format: cell-based, human; conditions: HT-29, Alisertib 4 μM
Description: Medium containing 10%FBS was placed in the lower chamber. […] Invading cells in the membrane were fixed with 100% methanol and stained with fresh prepared 0.2% crystal violet. Noninvasive cells in the upper chamber were removed by wiping the upper side of the membrane with a cotton swab, and cells located on the underside of the filter were observed and photographed under Olympus stereo microscope. The number of invading cells was counted using Image-Pro analysis software.

[13] = tested on: P-Histone H3; experiment: Western blot, phosphorylation of Histone H3 in HT-29 cells; format: cell-based, human; conditions: HT-29, Alisertib 2 μM
Experimental: as §3, §4

[14] = tested on: PARP cleavage and Caspase 3 activation in MDA-MB-468 cells; experiment: Apoptosis by Western blot of PARP cleavage and Caspase 3 activation, MDA-MB-468; format: cell-based, human; conditions: MDA-MB-468, single agent, low concentration, e.g. Alisertib 0.03 μM
Experimental: Cells were harvested from experiments of ectopic expression or knockdown using siRNA or the treatment with the inhibitors, washed, and then lysed using lysis buffer as previously described. The protein concentration of the lysate was measured, and the lysate was mixed with gel electrophoresis loading buffer, boiled for 5 minutes, separated by SDS-PAGE, and transferred to nitrocellulose membranes. […] To evaluate the effect of inhibitors on cell cycle progression, cells were treated with inhibitors at indicated dose or DMSO control and then harvested, fixed with 70% ethanol pretreated with RNase, and stained with propidium iodide (PI) (Sigma) as previously described for flow cytometry analysis. For the detection of apoptosis, cells were cultured for 24 h in medium with inhibitors at indicated dose or DMSO control and harvested for SDS-PAGE and Western blotting. The siRNA or drug treatment-induced apoptosis was detected by Western blot analysis of the cleavage of PARP and caspase-3.

[15] = tested on: HT-29 cells; experiment: Soft agar anchorage-independent growth, HT-29; format: cell-based, human; conditions: HT-29, Alisertib 2 μM
Experimental: The cells were allowed to incubate at 37° C for 3 weeks and fed once per week with the inhibitor before 1 mg/ml MTT (Sigma) solution was added overnight to facilitate colony counting. Colonies were scored and counted according to size, as previously described.

[16] = tested on: Aurora A auto-phosphorylation (Thr-288); experiment: Western blot, Aurora A auto-phosphorylation in nocodazole-synchronized MDA-MB-468 cells; format: cell-based, human; conditions: MDA-MB-468, nocodazole-synchronized, 2 h
Experimental: as §3, §4

[17] = tested on: HT29 cells; experiment: Anchorage-dependent proliferation, MTT assay, HT29; format: cell-based; conditions: Homo sapiens
Experimental: as §1

[18] = Homo sapiens, MDA-MB-468, Alisertib 0.5 μM

NC(=O)c1ccc(Nc2ncc(F)c(Nc3ccccc3)n2)cc1 [AJI-100]
IC50 [1]: 3600 nM
tumor volume after 14 day treatment, representative mouse ([2]; regressed from 222, vehicle grew 211 to 357): 158 mm3
average % change in tumor volume (regression) ([2]; vehicle grew by 40 %): 9%
IC50 [3]: 14 nM
IC50 [4]: 51 nM
inhibition at 5 µM ([5]; Homo sapiens, MDA-MB-468, 5 μM, 48 hr): 41.1%
inhibition at 5 µM ([5]; Homo sapiens, MDA-MB-468, 5 μM, 72 hr): 89.8%
invaded cells ([5]; MDA-MB-468, 5 μM, 48 hr, vehicle 723): 426 cells
invaded cells ([5]; MDA-MB-468, 5 μM, 72 hr, vehicle 1020): 104 cells
IC50 [6]: 5.4 nM
increase in mouse weights [7]: 0.04%
effect on phosphorylation of Histone H3 (Ser-10) [8]: decreased
effect on phosphorylation of STAT3 (Y705) ([9]; MDA-MB-468, increasing concentrations, 2 h): decreased
colony formation in soft agar ([10]; MDA-MB-468, increasing concentrations): inhibited colony formation

COc1cc(Nc2ncc3c(n2)-c2ccc(Cl)cc2C(c2c(F)cccc2OC)=NC3)ccc1C(=O)O [Alisertib]
effect on P-STAT3 [11]: not P-STAT3
invaded cells ([12]; vehicle 1066): 384 cells
inhibition at 4 µM ([12]; Homo sapiens): 64%
inhibition at 0.05 µM ([1]; MDA-MB-468, Alisertib 0.05 μM): 25.4%
IC50 [1]: 70 nM
inhibition at 0.5 µM [5, 18]: 24.5%
invaded cells ([5]; MDA-MB-468, Alisertib 0.5 μM, vehicle 344): 260 cells
effect on P-Histone H3 [13]: inhibited P-Histone H3
effect on P-Histone H3 ([8]; MDA-MB-468, Alisertib 0.5 μM): inhibited P-Histone H3
effect on phosphorylation of Histone H3 (Ser-10) [8]: highly effective at inhibiting
effect on P-STAT3 ([9]; MDA-MB-468, Alisertib 0.5 μM): not P-STAT3
PARP cleavage [14]: neither Alisertib nor Ruxolitinib induced PARP cleavage
soft agar colonies ([15]; vehicle 129): 56 colonies
inhibition at 2 µM ([15]; Homo sapiens, read-out: inhibition of soft agar colonies): 56.6%
effect on auto-phosphorylation of Aurora A [16]: highly effective at inhibiting
inhibition at 0.05 µM ([17]; HT-29, 48 h, read-out: inhibition of proliferation): 5%
IC50 ([17]; HT-29, HT29, MTT, 48 h): 2000 nM
inhibition at 0.5 µM [10, 18]: 49%
soft agar colonies ([10]; MDA-MB-468, Alisertib 0.5 μM, vehicle 131): 67 colonies
